Experimental data published in paper PMC12040169 (PLOS Biology, 2025).

Experiment: in vitro
Details: human, hela cells, % viability

Row | Compound | viability at 28.5 h, 10 µM [%]
1 | Nc1ncc(-c2ccc(Cl)cc2)c(C2CCCN(C(=O)Cc3c[nH]c4ccccc34)C2)n1 (centres unmarked) [CBK285574] | 113
2 | COc1ccccc1N1CCN(CCC(=O)Nc2cccc(F)c2)CC1 [CBK264254C] | 92.8
3 | NC(=O)CCN1CCCC2(CCN(C(=O)Cc3c[nH]c4ccccc34)C2)C1 (centres unmarked) [CBK132041] | 106
4 | O=C1NC2CCCCC2NC1CC(=O)N1CCN(Cc2ccccc2)CC1 (centres unmarked) [CBK269484] | 92.5
5 | O=C(CCn1c(-c2ccncc2)cc2cccnc21)NC1CCCCC1 [CBK282621] | 87.8
6 | CC(C)N1CCC(N(C)Cc2nc3ccccc3[nH]2)CC1 [CBK283021] | 105
7 | CCOC(=O)c1[nH]c2ccccc2c1NC(=O)c1ccc(Br)cc1Cl [CBK160147] | 91.3
8 | COc1ccccc1CC(=O)Nc1ccc(-c2nnc(-c3ccc(C)cc3)o2)cc1 [CBK268329] | 105
9 | COC1CCCC(C(=O)NC(Cc2ccsc2)c2cccnc2)C1 (centres unmarked) [CBK284654] | 84.4
10 | CCc1ccc2c(c1)C(CCNC(=O)CCc1ccsc1)C(=O)N2 (centres unmarked) [CBK305063] | 94.5
11 | CCN(CC)C(=O)c1sc2nc(-c3cccs3)nc(C)c2c1N [CBK115366] | 100
12 | Cn1ncc2c1CCCN(C(=O)COc1ccccc1F)C2 [CBK285324] | 101
13 | CC(C)c1nn(CN(C)Cc2ccccc2)c(=S)[nH]1 [CBK295166] | 102
14 | CS(=O)(=O)Nc1ccc(C(=O)Nc2ccc(S(=O)(=O)N3CCCCCC3)cc2)cc1 [CBK268288] | 107
15 | CCN(CC)S(=O)(=O)c1cc(S(=O)(=O)N(CC)CC)c2cccc3c2c1NC(=O)O3 [CBK005022] | 85.3
16 | CN(C)CCN(C)c1nc(-c2cc(C(F)(F)F)cc(C(F)(F)F)c2)cn2ccnc12 [CBK037971] | 104
17 | Cn1c(N)nc2c(ncn2[C@H]2C[C@@H](O)[C@@H](CO)O2)c1=O [CBK201215] | 105
18 | CC(C)(C)OC(=O)N1CCN(CCC(=O)O)CC1 [CBK287143] | 101
19 | C=CCNC(=O)N[C@H]1[C@H](O)[C@@H](N2CCCC2)[C@@H]2OC[C@H]1O2 [CBK288829] | 92.6
20 | COCCNS(=O)(=O)c1ccc(Br)c(C(=O)N(C)Cc2cnn(C)c2)c1 [CBK304795] | 96.6
21 | CC1CCCN(C(=O)CCn2c(C(F)F)cc3cccnc32)C1 (centres unmarked) [CBK285025] | 97.9

Row | Compound | viability at 28.5 h, 10 µM [%]
22 | CN(C)CCNC(=O)c1cc(-c2ccncc2)nc2ccc(Br)cc12 [CBK267728] | 103
23 | Cc1ccc(C)c(Oc2coc3cc(OCC(=O)Nc4ccccc4C(C)C)ccc3c2=O)c1 [CBK265906] | 113
24 | O=C1N=C(NCC2CCCCC2)SC1CC(=O)N1Cc2ccccc2C1 (centres unmarked) [CBK067016] | 85.1
25 | CC(C)c1ccc(S(=O)(=O)NCc2c(F)ccc(Cl)c2F)cc1 [CBK043484] | 88.4
26 | O=C(NCc1ccsc1)NCC1CCN(c2ccncc2)CC1 [CBK306394] | 91.3
27 | Cc1ccc(S(=O)(=O)NCC(=O)N2CCOCC2)cc1[N+](=O)[O-] [CBK050597] | 98.1
28 | Cc1ccc(NC(=O)CN(C)C)c(C)n1 [CBK200388] | 99.6
29 | O=C(N/N=C/c1cc2c(cc1Cl)OCO2)C(O)c1ccccc1 (centres unmarked) [CBK262177] | 112
30 | O=[N+]([O-])c1ccc(N2CCN(S(=O)(=O)c3ccc4ccccc4c3)CC2)c(C(F)(F)F)c1 [CBK264827] | 103
31 | CCOC(=O)C(C)n1ncc2c3sc(C)cc3n(C)c2c1=O (centres unmarked) [CBK284157] | 85.9
32 | CC(C)(C)NCCN1CCn2c1nc1ccccc12 [CBK019113] | 82
33 | COc1cc(CN2CCCCC2CO)c([N+](=O)[O-])cc1OC (centres unmarked) [CBK261730] | 85.1
34 | CCNC(=O)C1(Cc2ccccc2-c2ccccc2C)CCN(C(=O)c2ccccc2)CC1 [CBK285716] | 96.6
35 | O=C(CNC(=O)C1CCCCC1)NNC(=O)c1sc2ccccc2c1Cl [CBK267903] | 98.8
36 | CCC(=O)N1CCC(NCc2ccc(OCC(N)=O)cc2)C(C)C1 (centres unmarked) [CBK303989] | 77.6
37 | COc1ccc(Cn2nc(NC(C)=O)c3ccccc32)cc1 [CBK048200] | 109
38 | CNCCOc1ccccc1O [CBK023215C] | 99.8
39 | COCCOCCCN1CCC2(CC1)NC(=O)Cc1ccc(C)cc12 [CBK040222] | 109
40 | COc1ccccc1NC(=O)C(=O)N/N=C/c1ccc(C(=O)O)cc1 [CBK262148] | 93.8
41 | COc1cccc(NC(=O)c2ccnc(Cl)c2)c1 [CBK174661] | 104
42 | CSCCC(=O)N1CCC(Cn2cncn2)(C2CCCCC2)CC1 [CBK136799] | 102

Row | Compound | viability at 28.5 h, 10 µM [%]
43 | O=C(NCCCn1ccnc1)c1cccc(S(=O)(=O)N2CCCCC2)c1 [CBK304687] | 111
44 | Nn1cnn2c(SCc3ccc(Cl)cc3)nnc12 [CBK263193] | 106
45 | c1cncc(COc2nccnc2N2CCCC2)c1 [CBK115890] | 101
46 | CCN(C)c1c(C)nc2c(OCC(=O)N(C)C)cccn12 [CBK147316] | 107
47 | N#Cc1c(N)n(CCN)c2nc3ccccc3nc12 [CBK266706] | 87.4
48 | O=C1NC2(CCc3ccccc31)CCN(C(=O)c1cccnc1)C2 (centres unmarked) [CBK283335] | 96.5
49 | O=C(NCCc1cccs1)Nc1ccc(Cl)c(C(F)(F)F)c1 [CBK043775] | 97.6
50 | O=C(Nc1ccccc1)[C@H]1CN2CCC1C[C@@H]2Cn1cc(C2(O)CCCC2)nn1 (some centres unmarked) [CBK289091] | 103
51 | CN1C2CCC1CC(OC(=O)CNC1CCCCC1)C2 (centres unmarked) [CBK278161C] | 93.6
52 | CCN(CC)C(=O)C1CCCN(C(=O)Nc2ccc(N(CC)CC)cc2)C1 (centres unmarked) [CBK156139] | 94.4
53 | CC(C)(C)OC(=O)N1CCCC(c2nc3ccccc3cc2N)C1 (centres unmarked) [CBK284711] | 96.7
54 | CN1CCN(C(=O)Cc2csc(-c3ccc(Cl)cc3)n2)CC1 [CBK107301] | 104
55 | COc1cccc(/C=N/NC(=O)C(=O)NCc2ccccn2)c1 [CBK262268] | 84.5
56 | Cc1cccnc1CN1CCC2(CCc3ccccc3C(=O)N2)C1 (centres unmarked) [CBK284611] | 96.4
57 | Cc1ccc(Nc2ncc3c(n2)CCCC3=O)cc1 [CBK288143] | 87.6
58 | Cn1c(N)c(C(=O)NCC2CCCO2)c2nc3ccccc3nc21 (centres unmarked) [CBK269342] | 96.8
59 | N=C(Nc1nc(=O)cc(CSc2ccc(Cl)cc2)[nH]1)Nc1cccc2ccccc12 [CBK266504] | 98.9
60 | CCC1C=CCC(C(=O)O)C1C(=O)Nc1ccc(C(=O)N2CCOCC2)cc1 (centres unmarked) [CBK265798] | 102
61 | O=C(O)c1cccc(-n2nnnc2SCc2ccccn2)c1 [CBK266744] | 115
62 | Cc1cc(COc2cc(N3CCCN(Cc4ccc5c(c4)OCO5)CC3)ncn2)no1 [CBK083335T] | 95.7

Same assay, conditions: human, hela cells, % viability, bulk resorufin, single well

Row | Compound | viability at 28.5 h, 10 µM [%]
63 | CC(=O)N1CCC2(CC1)OCc1cc(-c3cnc4ccccc4c3)ccc1O2 [CBK060976] | 93.8
64 | O=c1[nH]c(=S)[nH]c(O)c1CN1CCOCC1 [CBK262493] | 98.7
65 | CC(C)NC(=O)Cn1cc(C(=O)COc2ccccc2)c2ccccc21 [CBK268317] | 82.6
